Test results taken from patent US20070105787A1, “Use of ribose in recovery from anaesthesia” (priority 2004, published 2007).

What was measured:
[1] = test system: myocardial dysfunction resulting from globally induced ischemia during cardiac surgical procedures; type: in vivo, human
Description: Inclusion criteria were: • Males or females aged 18 or older • Patients with documented coronary artery disease undergoing CABG with an ejection fraction (EF) of ≦35% based on echocardiography, radionuclide imaging or cardiac catheterization done within eight weeks of surgery. (If more than one method was used to evaluate EF during this period, the mean values of the various methods were ≦35%). • Patients undergoing single or double valve replacement with documented coronary artery disease also undergoing CABG; or patients undergoing single or double valve replacement without CABG • Serum creatinine of ≦2.35 mg/dl • For females of childbearing potential, a negative pregnancy test. • Signed consent forms. The test article, placebo or ribose, was dispensed according to computer-generated randomization schedule either for patients undergoing CABG only or for patients undergoing heart valve surgery +/-CABG. All patients received a high dose narcotic anaesthesia technique consisting of either fentanyl (50-100 μg/kg) or sufentanil (10-20 μg/kg) and midazolam. No restriction was placed on the type of anaesthetic agents administered. The anaesthesiologists and surgeons responsible for the care of the patents made the clinical decision to use inotropic support, intra-aortic balloon pump support or post bypass circulatory support based on their knowledge of patients requirements and accepted medical practice and without regard to test article status. The test article infusion was started intravenously at the time of aortic cross clamping and continued until the pulmonary artery catheters introducer was removed or for five days (120) hours whichever occurred first. The surgeons responsible for the clinical care of the patients removed the pulmonary artery catheter cordis without regard to test article stats. Hemodynamic measurements consisting of heart rate, blood pressure, pulmonary artery pressures, pulmonary capillary wedge pressure (PCWP), central venous pressure (CVP) and thermodilution cardiac index (CI) were obtained at the following time intervals: immediately prior to induction of anaesthesia, post induction of anaesthesia prior to sternotomy, post sternotomy prior to initiation of cardiopulmonary bypass, upon successful termination of cardiopulmonary bypass prior to sternal closure and prior to reversal of heparinization with protamine, post closure of the sternum, upon arrival in the intensive care unit and at one or two hour intervals until the pulmonary artery a catheter was removed. Transesophageal echocardiography data (H.P. Sonos OR, 5.0 MHz, Andover, Mass.) was collected at the following time intervals: post induction of anaesthesia prior to sternotomy, and immediately post closure of the sternum. Transthoracic echocardiography (H.P. Sonos 1500. 2.5 MHz, Andover, Mass.) measurements were made on day three and day seven of the study period. For both the transesophageal and transthoracic echocardiograms, the following long axis and short axis mid-papillary area changes were measured in triplicate by acoustic quantification techniques: end diastolic area (EDA), end systolic area (ESA), fractional area change (FAC), +dA/dt and -dA/dt. All area change data were also analyzed by manual off line analysis. EF was also determined off line using a long axis view. In addition, regional wall motion was quantified as the following: normal=1, hypokinetic=2, akinetic=3 and dyskinetic=4. The wall motion index score (WMIS) and percentage normal myocardium were calculated by reading a maximum of sixteen segments. Echocardiography data for evaluating wall motion and area change was analyzed only if greater than 75% of the endocardial border could be visualized through a complete cardiac cycle. […]

[2] = test system: patients selected for OCBP revascularization; assay: presurgical oral ribose loading, off cardiopulmonary bypass (OCBP) revascularization trial; type: in vivo, human; conditions: oral D-ribose preoperatively (24 patients) vs no ribose (20), baseline to post-operative, p<0.028
Description: Patients with stable coronary artery disease or patients presenting with acute myocardial infarction may undergo revascularization using an “off” cardiopulmonary bypass procedure (“OCBP”). This procedure avoids the deleterious effects of cross-clamping in patients who can be selected for the procedure. The selection criteria include: accessibility of the grafts; number of the grafts; condition of the patient. When the area to be revascularized is at the back of the heart, the heart will need to be handled and rotated, which would interfere with the beating of the heart. If several grafts are needed, the time of operation is prolonged and the patient's heart will need to support circulation for a long time. Finally, a poorly functioning heart will need the assistance of the pump to support circulation. Nevertheless, in properly selected patients, the benefits of avoiding cross-clamping are substantial.
Forty-four adult patients were enrolled in a trial. At least one-third of the patents had sustained an acute myocardial infarction prior to presentation and pre-operative ejection fractions ranged from 30-72%. All patients were selected for OCBP revascularization with 20 patients comsuming no pre-operative ribose and 24 patients given oral D-ribose preoperatively, cardiac indices were measured at baseline and post-operatively. […]

[3] = test system: Wistar rats, recovery from general anaesthesia; assay: planned rat sham abdominal surgery study under halothane anaesthesia; type: in vivo; conditions: D-Ribose before, during and after sham operation, vs D-Glucose placebo
Method: Littered-paired Wistar rats will be preconditioned with oral D-Ribose (250 mg/day, 10 animals) as a test drug or D-Glucose (250 mg/day, 10 animals) as a placebo for five days. Following the preconditioning, the rats will be anesthetized with halothane, intubated for artificial respiration and paralyzed with curare. Following general anaesthesia, the rats will be given either the test drug or placebo, intravenously (IV). A two-inch abdominal incision will be made and the viscera will be carefully manipulated to simulate an abdominal exploratory surgery. The incision will be closed and the animals will be held under anaesthesia for one additional hour. Following that hour, anaesthesia will be discontinued and the IV infusion will be halted. The animals will be placed individually in activity cages and their activity will be assessed daily for five days. Test drug or placebo will be added to the drinking water at a dosage of 5% wt/vol. The blinded results will be observed for: first movement (return to consciousness following the sham operation) and daily activity over the first day and next five days. Food and water intake and gastrointestinal function will be measured.

[4] = test system: sheep undergoing aortic valve replacement under general anaesthesia
[5] = test system: patients undergoing AVR with aortic cross clamping; assay: planned trial of preoperative oral plus intravenous D-Ribose before cross clamping (Example 3); type: in vivo, human; conditions: oral D-Ribose preloading plus IV 100 mg/kg/hour with D-Glucose, vs placebo
Description: A single-center, randomized, double-blinded placebo-controlled clinical trial was designed to determine if preoperative oral administration of D-Ribose, following by peri-operative and operative intravenous infusion of D-Ribose could improve the ejection fraction and other functional parameters of hearts that are cross-clamped for various cardiac surgical procedures. Thirty (30) patients meeting the inclusion and exclusion criteria and who have signed informed consent forms will be randomized to receive oral D-Ribose (15) or D-Glucose (placebo) (15) for seven or 14 days prior to their surgical procedure and intravenous 5% […] (5% D-Glucose in normal saline, 0.5 mL/kg/hour) or 10% pyrogen-free D-Ribose in 5% D5W at a dose of 100 mg/kg/hour for five (5) days through a pulmonary artery cordis) beginning at the time of aortic cross clamping. […] Patients will be evaluated baseline×2, (once prior to beginning oral test supplement and again within three days prior to surgical procedure), during and after surgery, and at days 1, 5 and 7. […] Patients will be evaluated for eligibility within three days to first test article administration and evaluation will be updated within three days prior to surgery. […] A medication history will be taken and all medications recorded in the case report. […]

[6] = test system: recovery from general anaesthesia; assay: anecdotal reports, non-cardiac surgery with general anaesthesia; type: in vivo, human; conditions: person, vs first operation
Description: A. Anecdotal Results from Non-Cardiac Surgery with General Anaesthesia. […] For example, a person underwent two hip replacement operations, five months apart. With the second operation, they began taking oral ribose immediately after their recovery from anaesthesia. Their recovery to a feeling of alertness and energy was more rapid than after the first operation. Furthermore, their level of pain was less. Likewise, a person also underwent two knee replacement operations. With the second operation, they self-administered D-Ribose pre- and postoperatively. Their recovery to a feeling of alertness and energy was more rapid than after the first operation. Bauer et al. (Z. Geb. Neonatal 2001 May-June, 205(3):80-85) studied the efficacy of oral glucose for treating procedural pain in neonates. […] The authors proposed that the orogustatory stimulation by the sweet taste caused an endorphin release. It is not known whether the result seen was due to the local effect or to a systemic effect of glucose.

[7] = test system: healthy dog hearts after 20 minute normothermic global myocardial ischemia; conditions: D-Ribose from reperfusion for at least four days; cited from earlier work
[8] = test system: procedural pain in neonates; conditions: glucose solution on the tongue; cited from earlier work
[9] = second hip replacement, oral ribose after anaesthesia

| Compound | patients who developed hypoglycemia (fingerstick glucose<70 mg/dl) ([1]; both, human, in vivo) [%] | lowest glucose level ([1]; human, in vivo) [mg/dL] | mean glucose level in those patients developing hypoglycemia ([1]; human, in vivo) [mg/dL] | neurological or other clinical symptoms associated with hypoglycemia ([1]; human, in vivo) | mean Day 7 EF ([1]; ribose treated patients, Day 7, echocardiography, IV 100 mg/kg/hr, p=0.49 vs baseline) [%] | mean baseline EF ([1]; ribose treated patients, baseline, echocardiography, IV 100 mg/kg/hr) [%] | change of EF from baseline to Day 7 ([1]; ribose treated patients, placebo EF declined, treatment effect p=0.04) | greater increase in cardiac indices compared to controls [2] [%] | expected movement after anaesthesia and activity during the following five days [3] | tolerability (metabolic or chemical abnormalities) ([4]; in vivo, iv) | time quiet and inactive after extubation ([4]; sheep given ribose) | time to eating solid food ([4]; sheep given ribose, some animals, after the quiet period) | time to assume a consciousness state upon weaning from the ventilator ([4]; sheep, vs animals not given ribose) | time to cardiac arrest with cardioplegia ([4]; sheep, vs animals not given ribose, difference not statistically significant) | expected myocardial function and recovery [5] | level of pain [6, 9] | recovery to a feeling of alertness and energy [6, 9] | recovery to a feeling of alertness and energy ([6]; second knee replacement, D-Ribose pre- and postoperatively) | ATP recovery [7] | degree of pain experienced during venous blood sampling [8] |
| --- | --- | --- | --- | --- | --- | --- | --- | --- | --- | --- | --- | --- | --- | --- | --- | --- | --- | --- | --- | --- |
| O=C[C@H](O)[C@H](O)[C@H](O)CO [D-Ribose] | 28 | 31 | 58 | None of these patients developed neurological or other clinical symptoms | 41 | 44 | unchanged | 49 | earlier movement after anaesthesia and increased activity | no metabolic or chemical abnormalities | about one | within the next hour | faster | somewhat faster | better myocardial function | less | more rapid | more rapid | enhanced ATP recovery |  |
| O=C[C@H](O)[C@@H](O)[C@H](O)[C@H](O)CO [glucose, D-Glucose] |  |  |  |  |  |  |  |  |  |  |  |  |  |  |  |  |  |  |  | reduced the degree of pain |
